Measurements taken from article PMC8587000, “Pyridinone Derivatives as Interesting Formyl Peptide Receptor (FPR) Agonists for the Treatment of Rheumatoid Arthritis” (Molecules, 2021).
Where two headings read alike, the source gives them in different places.

Tests used:
[1] = system: animal models (collagen-induced and antigen-induced arthritis) of RA; parameters: method as in PMID 16697190, PMID 29879657; settings: dose of 30 mg/kg (i.p.); cited from earlier work
[2] = system: model of antigen-induced arthritis; parameters: method as in PMID 33493655, PMID 30419493; settings: increasing neutrophil apoptosis and efferocytosis; cited from earlier work
CFA-treated rats [3] = assay: Paw pressure test in CFA-induced inflammatory arthritis; assay type: in vivo, rat; settings: 10 mg/kg p.o. daily for 7 days, day 8 (24 h after last dose), CFA + vehicle 35.2 ± 1.6 g, sham + vehicle 66.4 ± 2.3 g, mean ± SEM, five rats
Experimental: (§1) Male Sprague Dawley rats (Envigo, Varese, Italy) weighing approximately 200–250 g at the beginning of the experimental procedure were used. Animals were housed in Ce.S.A.L. (Centro Stabulazione Animali da Laboratorio, University of Florence) and used at least one week after their arrival. Four rats were housed per cage (size 26 × 41 cm^2); animals were fed a standard laboratory diet, given tap water ad libitum, and kept at 23 ± 1 °C with a 12 h light/dark cycle, light at 7 a.m. All animal manipulations were carried out according to the Directive 2010/63/EU of the European parliament and of the European Union council (22 September 2010) on the protection of animals used for scientific purposes. The ethical policy of the University of Florence complies with the Guide for the Care and Use of Laboratory Animals of the US National Institutes of Health (NIH Publication No. 85–23, revised 1996; University of Florence assurance number: A5278-01). Formal approval to conduct the experiments described was obtained from the Italian Ministry of Health (No. 517/2017, 06/04/2017) and from the Animal Subjects Review Board of the University of Florence. Experiments involving animals have been reported according to ARRIVE guidelines. […]
Nociceptive threshold was determined with an analgesimeter (Ugo Basile, Varese, Italy). […]

CFA-treated rats [4] = assay: Incapacitance test in CFA-induced inflammatory arthritis; assay type: in vivo, rat; settings: 10 mg/kg p.o. daily for 7 days, day 8, CFA + vehicle 57.2 ± 4.0 g, sham + vehicle 3.6 ± 2.5 g, mean ± SEM, five rats
Experimental: as §1, with “A5278-01).” for “A5278-01). Formal approval to conduct the experiments described was obtained from the Italian Ministry of Health (No. 517/2017, 06/04/2017) and from the Animal Subjects Review Board of the University of Florence. Experiments involving animals have been reported according to ARRIVE guidelines.”
Weight bearing changes were measured using an Incapacitance Apparatus (Linton Instrumentation, UK), detecting changes in postural equilibrium after a hind limb injury. […] Data are expressed as the difference between the weight applied to the limb contralateral to the injury and the weight applied to the ipsilateral one (Δ weight).

human neutrophils (hPMN) [5] = system: human neutrophils (hPMN); parameters: method as in PMID 32388428; settings: Ca2+ mobilization; cited from earlier work
[6] = system: rat model of rheumatoid arthritis; parameters: method as in PMID 32388428; settings: dose of 30 mg/kg/day; cited from earlier work
FPR2 [7] = molecular target: T1, FPR2 (Homo sapiens, UniProt P25090); assay: Ca2+ mobilization in FPR2-transfected HL60 cells; assay type: cell-based
T1 construct: expressed in transfected cells; host or cells: HL60 (human promyelocytic leukemia), stably transfected; gift from Dr. Marie-Josephe Rabiet
T1 sequence (P25090 1-351): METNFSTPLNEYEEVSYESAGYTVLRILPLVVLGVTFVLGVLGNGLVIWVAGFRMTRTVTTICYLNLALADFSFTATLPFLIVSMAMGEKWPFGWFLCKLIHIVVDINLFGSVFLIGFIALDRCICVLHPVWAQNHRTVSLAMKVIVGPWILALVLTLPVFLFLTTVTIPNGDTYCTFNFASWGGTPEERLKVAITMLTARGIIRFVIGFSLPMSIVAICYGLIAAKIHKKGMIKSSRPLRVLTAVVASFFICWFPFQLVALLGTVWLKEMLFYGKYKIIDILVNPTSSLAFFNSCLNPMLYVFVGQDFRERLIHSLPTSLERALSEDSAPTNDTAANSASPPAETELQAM
Experimental: (§2) Human promyelocytic leukemia HL60 cells stably transfected with FPR1 (FPR1-HL60 cells) or FPR2 (FPR2-HL60 cells) (kind gift from Dr. Marie-Josephe Rabiet, Université Joseph Fourier, Grenoble, France) were cultured in RPMI 1640 medium supplemented with 10% heat-inactivated fetal calf serum, 10 mM HEPES, 100 μg/mL streptomycin, 100 U/mL penicillin, and G418 (1 mg/mL). G418 was removed in the last round of culture before assays were performed.

FPR1 [8] = molecular target: T2, FPR1 (Homo sapiens, UniProt P21462); parameters: method as in PMID 32388428; settings: Ca2+ mobilization; read-out: FPR1-HL60 EC50; cited from earlier work
T2 construct: expressed in transfected cells; host or cells: HL60 (human promyelocytic leukemia), stably transfected; gift from Dr. Marie-Josephe Rabiet
T2 sequence (P21462 1-350): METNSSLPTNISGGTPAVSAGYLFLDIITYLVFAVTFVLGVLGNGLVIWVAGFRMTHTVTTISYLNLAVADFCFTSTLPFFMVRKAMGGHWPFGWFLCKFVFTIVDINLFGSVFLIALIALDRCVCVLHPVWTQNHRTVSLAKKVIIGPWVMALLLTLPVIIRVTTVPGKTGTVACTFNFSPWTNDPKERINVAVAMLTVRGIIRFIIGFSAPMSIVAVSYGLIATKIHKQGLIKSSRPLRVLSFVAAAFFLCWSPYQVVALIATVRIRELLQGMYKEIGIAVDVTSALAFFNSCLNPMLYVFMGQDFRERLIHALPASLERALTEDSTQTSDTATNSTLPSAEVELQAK

FPR2 [9] = molecular target: T1, FPR2; parameters: method as in PMID 32388428; settings: Ca2+ mobilization; read-out: FPR2-HL60 EC50; cited from earlier work
FPR1 [10] = molecular target: T2, FPR1; assay: Ca2+ mobilization in FPR1-transfected HL60 cells; assay type: cell-based
Experimental: as §2

human neutrophils (hPMN) [11] = assay: Ca2+ mobilization in human neutrophils (hPMN); assay type: cell-based; settings: Neutrophil
From the text: Blood was collected from healthy donors in accordance with a protocol approved by the Institutional Review Board at Montana State University. Neutrophils were purified from the blood using dextran sedimentation, followed by Histopaque 1077 gradient separation and hypotonic lysis of red blood cells. Isolated neutrophils were washed twice and resuspended in HBSS^-. Neutrophil preparations were routinely >95% pure, as determined by light microscopy, and >98% viable, as determined by trypan blue exclusion.
Changes in intracellular Ca^2+ were measured with a FlexStation II scanning fluorometer (Molecular Devices, Sunnyvale, CA, USA). The cells, suspended in Hank’s balanced salt solution without Ca^2+ and Mg^2+ but with 10 mM HEPES (HBSS^−), were loaded with 1.25 μg/mL Fluo-4 AM dye and incubated for 30 min in the dark at 37 °C. After dye loading, the cells were washed with HBSS^- containing 10 mM HEPES, resuspended in HBSS^+ containing Ca^2+, Mg^2+, and 10 mM HEPES (HBSS^+), and aliquoted into the wells of flat-bottom, half-area-well black microtiter plates (2 × 10^5 cells/well). For the evaluation of direct agonist activity, compounds of interest were added from a source plate containing dilutions of test compounds in HBSS^+, and changes in fluorescence were monitored (λex = 485 nm, λem = 538 nm) every 5 s for 240 s at room temperature after the automated addition of compounds. Maximum change in fluorescence during the first 3 min, expressed in arbitrary units over baseline, was used to determine a response. […] Curve fitting (5–6 points) and calculation of median effective inhibitory concentrations (IC50) were performed by nonlinear regression analysis of the dose–response curves generated using Prism 9 (GraphPad Software, Inc., San Diego, CA, USA).

Question: With CC(C)c1c(NC(=O)Nc2ccc(Cl)cc2)c(=O)n(-c2ccccc2)n1C [Cpd43] as the molecule, how does the “effect on arthritis (tissue inflammation, cartilage damage, synovitis)” value [1] read?
Answer: The value was “significantly reducing the tissue inflammation, cartilage damage, and synovitis”.

Question: For CCC[C@@H](O)c1c(/C=C/[C@@H](O)[C@@H](O)CCCC(=O)OC)nc(C)n1C [AT-01-KG], which anti-inflammatory activity [2] is on record?
Answer: The anti-inflammatory activity was “anti-inflammatory activity”.

Question: Which results are given for COc1cccc(-c2cc(C#N)c(=O)n(CC(=O)Nc3ccc(Br)cc3)c2C)c1 [AMC3]?
Answer: pain threshold (paw pressure test) (CFA-treated rats [3]): 52.4 ± 2.8 g; postural unbalance, Δ Weight (incapacitance test) (CFA-treated rats [4]): 34.6 ± 3.8 g; EC50 (human neutrophils (hPMN) [5]): 390 ± 170 nM; effect on pain hypersensitivity [6]: completely control pain hypersensitivity

Question: What does the source list for CCOC(=O)c1cc(C#N)c(=O)n(CC(=O)Nc2ccc(Br)cc2)c1C [AMC4, reference compound]?
Answer: selectivity index (SI) FPR1/FPR2 (FPR2 [7]; ratio of EC50 FPR1-HL60 / FPR2-HL60): 8; EC50 (FPR1 [8]): 3000 ± 400 nM; EC50 (FPR2 [9]): 380 ± 90 nM; EC50 (human neutrophils (hPMN) [5]): 830 ± 240 nM

Question: Which results are given for Cc1c(-c2cccc(O)c2)cc(C#N)c(=O)n1CC(=O)Nc1ccc(Br)cc1 [Compound 14a, N-(4-Bromophenyl)-2-[3-cyano-5-(3-hydroxyphenyl)-6-methyl-2-oxopyridin-1(2H)-yl] acetamide]?
Answer: EC50 (FPR1 [10]): 230 ± 60 nM; Emax (FPR1 [10]; HL-60, read-out: FPR1-HL60 Efficacy (converted)): 115%; EC50 (FPR2 [7]): 230 ± 20 nM; Emax (FPR2 [7]; HL-60, read-out: FPR2-HL60 Efficacy (converted)): 150%; EC50 (human neutrophils (hPMN) [11]): 3700 ± 700 nM; Emax (human neutrophils (hPMN) [11]; read-out: hPMN Efficacy (converted)): 130%; melting point: 282 to 284 °C (dec.)
